ChEMBL document CHEMBL4411307, “N,N'-diaryl-bishydrazones in a biphenyl platform: Broad spectrum antifungal agents” (Eur J Med Chem, 2019)
Values after ≈ are worked out from the molar mass of the structure shown. Active and inactive are the calls of the source. The rule behind the calls is not given here.

Key:
[1] = system: Aspergillus flavus; experiment: Antifungal activity against Aspergillus flavus ATCC MYA-3631 measured after 48 hrs by CLSI M38-A2 protocol based method; assay type: functional; settings: ATCC MYA-3631, 48 h
[2] = system: Candida albicans; experiment: Antifungal activity against fluconazole/ITC-resistant Candida albicans ATCC MYA-1003 measured after 48 hrs by CLSI M27-A3 protocol based method; assay type: functional; settings: ATCC MYA-1003, 48 h
[3] = system: BEAS-2B; experiment: Cytotoxicity against human BEAS2B cells after 24 hrs by resazurin based assay; assay type: cell-based
[4] = system: Candida albicans; experiment: Antifungal activity against fluconazole/ITC-resistant Candida albicans ATCC 10231 measured after 48 hrs by CLSI M27-A3 protocol based method; assay type: functional; settings: ATCC 10231, 48 h
[5] = Selectivity index, ratio of CC50 for human A549 cells to MIC for fluconazole/ITC-resistant Candida albicans ATCC 10231; assay type: toxicity; settings: read-out: Selectivity Index
[6] = Hemolytic activity in mouse RBC at 31.3 ug/ml after 1 hr relative to control; assay type: ADME, cell-based, Erythrocyte; settings: red blood cells (erythrocytes), read-out: Activity
[7] = Selectivity index, ratio of CC50 for human A549 cells to MIC for Aspergillus nidulans ATCC 38163; assay type: toxicity; settings: read-out: Selectivity Index
[8] = system: Nakaseomyces glabratus; experiment: Antifungal activity against Candida glabrata ATCC 2001 measured after 48 hrs by CLSI M27-A3 protocol based method; assay type: functional; settings: CBS 138, 48 h
[9] = Hemolytic activity in mouse RBC at […] ug/ml after 1 hr relative to control; assay type: ADME, cell-based, Erythrocyte; settings: red blood cells (erythrocytes), read-out: Activity
[10] = Hemolytic activity in mouse RBC at 3.9 ug/ml after 1 hr relative to control; assay type: ADME, cell-based, Erythrocyte; settings: red blood cells (erythrocytes), read-out: Activity
[11] = Selectivity index, ratio of CC50 for human A549 cells to MIC for Aspergillus terreus ATCC MYA-3633; assay type: toxicity; settings: read-out: Selectivity Index
[12] = system: Candida albicans; experiment: Antifungal activity against fluconazole/ITC-resistant Candida albicans ATCC MYA-1237 measured after 48 hrs by CLSI M27-A3 protocol based method; assay type: functional; settings: ATCC MYA-1237, 48 h
[13] = Selectivity index, ratio of CC50 for human A549 cells to MIC for fluconazole/ITC-resistant Candida albicans ATCC MYA-1237; assay type: toxicity; settings: read-out: Selectivity Index
[14] = Selectivity index, ratio of CC50 for human A549 cells to MIC for Candida parapsilosis ATCC 22019; assay type: toxicity; settings: read-out: Selectivity Index
[15] = system: Candida parapsilosis; experiment: Antifungal activity against Candida parapsilosis ATCC 22019 measured after 48 hrs by CLSI M27-A3 protocol based method; assay type: functional; settings: Lodderomyces parapsilosis, ATCC 22019, 48 h
[16] = Hemolytic activity in mouse RBC at 1.95 ug/ml after 1 hr relative to control; assay type: ADME, cell-based, Erythrocyte; settings: red blood cells (erythrocytes), read-out: Activity
[17] = Selectivity index, ratio of CC50 for human A549 cells to MIC for Candida glabrata ATCC 2001; assay type: toxicity; settings: read-out: Selectivity Index
[18] = Selectivity index, ratio of CC50 for human A549 cells to MIC for fluconazole/ITC-resistant Candida albicans ATCC 64124; assay type: toxicity; settings: read-out: Selectivity Index
[19] = system: Candida albicans; experiment: Antifungal activity against fluconazole/ITC-resistant Candida albicans ATCC 64124 measured after 48 hrs by CLSI M27-A3 protocol based method; assay type: functional; settings: ATCC 64124, 48 h
[20] = system: Candida albicans; experiment: Antifungal activity against fluconazole/ITC-susceptible Candida albicans ATCC MYA-2310 measured after 48 hrs by CLSI M27-A3 protocol based method; assay type: functional; settings: ATCC MYA-2310, 48 h
[21] = system: Staphylococcus aureus; experiment: Antibacterial activity against methicillin-resistant Staphylococcus aureus; assay type: functional, organism-based
[22] = system: Pichia kudriavzevii; experiment: Antifungal activity against Candida krusei ATCC 6258 measured after 48 hrs by CLSI M27-A3 protocol based method; assay type: functional; settings: ATCC 6258, 48 h
[23] = Hemolytic activity in mouse RBC at 62.5 ug/ml after 1 hr relative to control; assay type: ADME, cell-based, Erythrocyte; settings: red blood cells (erythrocytes), read-out: Activity
[24] = Hemolytic activity in mouse RBC at […] after 1 hr relative to control; assay type: ADME, cell-based, Erythrocyte; settings: red blood cells (erythrocytes), read-out: Activity; also: tested at 0.48 µg/mL
[25] = system: Enterococcus; experiment: Antibacterial activity against vancomycin-resistant Enterococcus; assay type: functional, organism-based
[26] = Selectivity index, ratio of CC50 for human A549 cells to MIC for fluconazole/ITC-resistant Candida albicans ATCC MYA-1003; assay type: toxicity; settings: read-out: Selectivity Index
[27] = Selectivity index, ratio of CC50 for human A549 cells to MIC for Candida krusei ATCC 6258; assay type: toxicity; settings: read-out: Selectivity Index
[28] = Hemolytic activity in mouse RBC at 7.8 ug/ml after 1 hr relative to control; assay type: ADME, cell-based, Erythrocyte; settings: red blood cells (erythrocytes), read-out: Activity
[29] = system: Aspergillus terreus; experiment: Antifungal activity against Aspergillus terreus ATCC MYA-3633 measured after 48 hrs by CLSI M38-A2 protocol based method; assay type: functional; settings: ATCC MYA-3633, 48 h
[30] = system: Aspergillus nidulans; experiment: Antifungal activity against Aspergillus nidulans ATCC 38163 measured after 48 hrs by CLSI M38-A2 protocol based method; assay type: functional; settings: ATCC 38163, 48 h
[31] = system: A549; experiment: Cytotoxicity against human A549 cells after 24 hrs by resazurin based assay; assay type: cell-based; settings: a549, 24 h
[32] = Selectivity index, ratio of CC50 for human A549 cells to MIC for fluconazole/ITC-susceptible Candida albicans ATCC MYA-2876; assay type: toxicity; settings: read-out: Selectivity Index
[33] = system: Listeria monocytogenes; experiment: Antibacterial activity against Listeria monocytogenes; assay type: functional, organism-based
[34] = system: Candida albicans; experiment: Antifungal activity against fluconazole/ITC-susceptible Candida albicans ATCC MYA-2876 measured after 48 hrs by CLSI M27-A3 protocol based method; assay type: functional; settings: ATCC MYA-2876, 48 h
[35] = Selectivity index, ratio of CC50 for human A549 cells to MIC for fluconazole/ITC-susceptible Candida albicans ATCC MYA-2310; assay type: toxicity; settings: read-out: Selectivity Index
[36] = Selectivity index, ratio of CC50 for human A549 cells to MIC for fluconazole/ITC-resistant Candida albicans ATCC 90819; assay type: toxicity; settings: read-out: Selectivity Index
[37] = system: Candida albicans; experiment: Antifungal activity against fluconazole/ITC-resistant Candida albicans ATCC 90819 measured after 48 hrs by CLSI M27-A3 protocol based method; assay type: functional; settings: ATCC 90819, 48 h
[38] = Selectivity index, ratio of CC50 for human A549 cells to MIC for Aspergillus flavus ATCC MYA-3631; assay type: toxicity; settings: read-out: Selectivity Index

Compound | MIC [1] | MIC [2] | CC50 [3] | MIC [4] | selectivity ratio [5] | selectivity ratio [7] | MIC [8] | selectivity ratio [11] | MIC [12] | selectivity ratio [13] | selectivity ratio [14] | MIC [15] | selectivity ratio [17] | selectivity ratio [18] | MIC [19] | MIC [20] | Activity [21] | MIC [22] | Activity [25] | selectivity ratio [26] | other results
Fc1cccc(N/N=C/c2ccc(-c3cccc(/C=N/Nc4cccc(F)c4)c3)cc2)c1 | 3.9 mg/L (≈ 9.14 µM) | 7.8 mg/L (≈ 18.3 µM) | 11.8 mg/L (≈ 27.7 µM) | 1.95 mg/L (≈ 4.57 µM) | 6 | 1.5 | > 31.3 mg/L | 0.4 | 15.6 mg/L (≈ 36.6 µM) | 0.8 | 0.4 | 31.3 mg/L (≈ 73.4 µM) | 0.4 | 0.4 | > 31.3 mg/L | > 31.3 mg/L | inactive | 1.95 mg/L (≈ 4.57 µM) | inactive | 1.5 | hemolysis at 1 h, 31.3 ug/ml [6]: 32.6%; hemolysis at 1 h, 15.6 ug/ml ([9]; at 15.6 µg/mL): 13.9%; hemolysis at 1 h, 0.975 ug/ml [9]: 4.6%; hemolysis at 1 h, 3.9 ug/ml [10]: 2.5%; hemolysis at 1 h, 1.95 ug/ml [16]: 0.6%; hemolysis at 1 h, 62.5 ug/ml [23]: 39.5%; hemolysis at 1 h, […] [24]: 0%; selectivity ratio [27]: 6; hemolysis at 1 h, 7.8 ug/ml [28]: 7.9%; MIC [29]: > 31.3 mg/L; MIC [30]: 7.8 mg/L (≈ 18.3 µM); CC50 [31]: 11.7 mg/L (≈ 27.4 µM); selectivity ratio [32]: 1.5; Activity [33]: inactive; MIC [34]: 7.8 mg/L (≈ 18.3 µM); selectivity ratio [35]: 0.4; selectivity ratio [36]: 0.8; MIC [37]: 15.6 mg/L (≈ 36.6 µM)
Fc1ccccc1N/N=C/c1ccc(-c2cccc(/C=N/Nc3ccccc3F)c2)cc1 | 3.9 mg/L (≈ 9.14 µM) | 7.8 mg/L (≈ 18.3 µM) | > 31 mg/L | 7.8 mg/L (≈ 18.3 µM) | 2.1 | 2.1 | > 31.3 mg/L | 0.5 | > 31.3 mg/L | 0.5 | 1.1 | 15.6 mg/L (≈ 36.6 µM) | 0.5 | 2.1 | 7.8 mg/L (≈ 18.3 µM) | 31.3 mg/L (≈ 73.4 µM) | inactive | 1.95 mg/L (≈ 4.57 µM) | inactive | 2.1 | selectivity ratio [27]: 8.4; MIC [29]: > 31.3 mg/L; MIC [30]: 7.8 mg/L (≈ 18.3 µM); CC50 [31]: 16.4 mg/L (≈ 38.5 µM); selectivity ratio [32]: 0.5; Activity [33]: inactive; MIC [34]: > 31.3 mg/L; selectivity ratio [35]: 0.5; selectivity ratio [36]: 1.1; MIC [37]: 15.6 mg/L (≈ 36.6 µM); selectivity ratio [38]: > 4.2
